By IC50 is commonly meant the point on the concentration scale where inhibition reaches its midpoint. A higher IC50 goes with weaker potency in that assay. As usually defined, the solubility is the dissolved amount per volume that the medium holds.

Our source for the IC50, GI50 and solubility values is US20250129096A1, “ANNULATED 2-AMINO-3-CYANO THIOPHENES AND DERIVATIVES FOR THE TREATMENT OF CANCER” (Boehringer Ingelheim Int'l GmbH Corp., priority 2021, published 2025).

Values after ≈ are worked out from the molar mass of the structure shown. Where two headings read alike, the source gives them in different places.

Series [1] addresses T1, KRAS (G12C)::SOS1 (Homo sapiens, UniProt P01116, C118S/C51S/C80L/G12C).
T1 construct: KRAS (G12C) 1-169, N-terminal 6His-tag for purification, cleaved off; 6His-tag (N, cleaved yes)
The series is described as follows: KRAS::SOS1 AlphaScreen binding assay, KRAS G12C. (Alpha assays give light when donor and acceptor beads are brought close together.)

Series [2] concerns the target KRAS G12D Ba/F3 cells (Homo sapiens, UniProt P01116, G12D, cells depend on it). The series is described as follows: Ba/F3 proliferation assay, KRAS G12D. Type of series: cell-based. Conditions: 72 h, AlamarBlue; read-out: KRAS G12D Ba/F3 IC50. Background: Alamar Blue is a resazurin reagent that responds to reducing activity.
For series [3], the system named is NCI-H2122 cells (NSCLC, G12C). As to the kind of experiment: NCI-H2122 CTG proliferation assay (120 h). Conditions: Homo sapiens, CellTiter-Glo. Type of series: cell-based. As to the method:
The CTG assay is designed to measure quantitatively the proliferation of NCI-H2122 cells (ATCC CRL-5985), using the CellTiter Glow Assay Kit (Promega G7571). Cells are grown in RPMI medium (ATCC) supplemented with Fetal Calf Serum (Life Technologies, Gibco BRL, Cat. No. 10270-106). On “day 0” 200 NCI-H2122 cells are seeded in 60 μL RPMI ATCC+10% FCS+ Penstrep in a black 384-well plate, flat and clear bottom (Greiner, PNr. 781091). Cells are then incubated in the plates at 37° C. in a CO2 incubator overnight. On day 1, compounds (10 mM stock in DMSO) are added with the ECHO acoustic liquid handler system (Beckman Coulter), including DMSO controls. Plates are incubated for 120 h, and cell viability is measured using CellTiter-Glo luminescent cell viability reagent (Promega product code G7570). Viability (stated as percent of control) is defined as relative luminescence units RLU of each well divided by the RLU of cells in DMSO controls. IC50 values are determined from viability measurements by non-linear regression using a four-parameter model.

Series [4] has as its system SAS cells (HNSCC, wt amplified). As to the kind of experiment: SAS CTG proliferation assay (120 h). Type of series: cell-based. The conditions noted are these: CellTiter-Glo. The protocol:
(§1) SAS cells (JCRB0260) are dispensed into 384-well plates, flat and clear bottom (Greiner, PNr. 781091) at a density of 300 cells per well in 60 μL DMEM:F12 (Gibco 31330-038)+10% Fetal Calf Serum (HyClone, PNr.: SH30084.03) and incubated at 37° C. in a CO2 incubator overnight. The next day, compounds (10 mM stock in DMSO) are added with the ECHO acoustic liquid handler system (Beckman Coulter), including DMSO controls. Plates are incubated for 120 h, and cell viability is measured using CellTiter-Glo luminescent cell viability reagent (Promega product code G7570). Viability (stated as percent of control) is defined as relative luminescence units RLU of each well divided by the RLU of cells in DMSO controls. IC50 values are determined from viability measurements by non-linear regression using a four-parameter model.
A general note: Cellular ATP, detected with luciferase, serves as a proxy for viable cell number.

Series [5] deals with SK-CO-1 cells (CRC, G12V). The series is described as follows: SK-CO-1 CTG proliferation assay (120 h). Type of series: cell-based. Conditions: Homo sapiens, CellTiter-Glo. The protocol: as §1, with “SK—CO-1 cells (ATCC” for “SAS cells (JCRB0260)”, “SK—CO-1 cells (ATCC HTB-39) are dispensed” for “SAS cells (JCRB0260) are dispensed”, “density of 500 cells per” for “density of 300 cells per”, “60 μL EMEM (Sigma M5650)+10% Fetal Calf” for “60 μL DMEM:F12 (Gibco 31330-038)+10% Fetal Calf”

Series [6] can be described thus: Solubility measurement (DMSO solution precipitation method). Type of series: physicochemical. The conditions noted are these: aqueous buffer, kinetic from dmso stock, ambient temperature. The method in brief:
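Compound DMSO solution diluted into McIlvaine buffer (pH 4.5 or 6.8) to 250 μM final, shaken 24 h at ambient temperature. Precipitate removed by filtration. Filtrate concentration measured by LC-UV against a fully dissolved reference in acetonitrile/water (1:1).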

Where [7] appears, read: McIlvaine buffer pH 4.5, 24 h, read-out: solubility pH 4.5.
[8] abbreviates: McIlvaine buffer pH 6.8, 24 h, read-out: solubility pH 6.8.

KRAS G12D Ba/F3 cells, sequence (P01116 whole entry G12D): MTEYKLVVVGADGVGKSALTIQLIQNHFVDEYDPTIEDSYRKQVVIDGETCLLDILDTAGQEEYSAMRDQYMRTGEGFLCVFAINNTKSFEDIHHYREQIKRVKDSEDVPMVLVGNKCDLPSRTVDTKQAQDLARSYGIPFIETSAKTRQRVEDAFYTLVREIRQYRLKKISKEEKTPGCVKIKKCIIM
T1 sequence (P01116 1-169 isoform P01116-2 G12C/C51S/C80L/C118S): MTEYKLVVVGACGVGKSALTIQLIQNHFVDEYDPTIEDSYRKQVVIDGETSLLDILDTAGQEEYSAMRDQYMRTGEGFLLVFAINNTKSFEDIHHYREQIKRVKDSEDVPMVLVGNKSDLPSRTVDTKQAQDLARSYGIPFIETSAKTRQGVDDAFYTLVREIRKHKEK

With `CCN1[C@H]2C[C@H]2C[C@H]1[C@H](C)Oc1nccc(-c2onc3c2CCC[C@@]32CCCc3sc(N)c(C#N)c32)n1` [Ie-3], the concentration for half-maximal inhibition (IC50) is 7 nM in series [1], 5.26 µM in series [3], 370 nM in series [4] and 817 nM in series [5]. Also, in series [2], the GI50 was found to be 33 nM. The figures for the solubility at 24 h in series [6] (setting [7]) and in series [6] (setting [8]) were more than 125 µg/mL and more than 123 µg/mL, respectively.
Turning to `C[C@H](Oc1nccc(-c2onc3c2CCC[C@@]32CCCc3sc(N)c(C#N)c32)n1)[C@@H]1C[C@@H]2C[C@@H]2N1` [If-2], the IC50 in series [1] is 15 nM; in series [3], more than 25 µM; in series [4], 8840 nM; in series [5], 7920 nM. Also, in series [2], the GI50 is 4670 nM. Also, the solubility at 24 h was 89 µg/mL (≈ 182 µM) in series [6] (setting [7]) and less than 1 µg/mL in series [6] (setting [8]).
As for `C[C@H](Oc1nccc(-c2onc3c2CCC[C@@]32CCCc3sc(N)c(C#N)c32)n1)[C@@H]1C[C@@H]2C[C@@H]2N1C` [Ih-1], the IC50 in series [1] was found to be 7 nM; in series [3], 7.81 µM; in series [4] it was 428 nM; in series [5], 398 nM. The GI50 in series [2] came to 43 nM. Further, the solubility at 24 h in series [6] (setting [7]) was more than 110 µg/mL; in series [6] (setting [8]) it was 93 µg/mL (≈ 185 µM).
